Laboratory results published in PubChem BioAssay (NCI).
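The compound was tested at five concentrations on cells cultured in 96-well plates, with a 48-hour exposure period. The concentration for 50% growth inhibition is given as GI50. TGI: concentration producing complete growth inhibition.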

test system: OVCAR-3 ovarian; assay: DTP human tumour cell line panel, 48 h

SMILES	GI50	TGI [µM]
O=C(NO)c1ccc(CN(c2cnccn2)c2cnccn2)cc1	11.7 µM	30
Cc1ccc(Nc2nnc(-c3ccc4c(c3)OCO4)o2)c(C)c1		> 100
CCCCCc1ccc(S(=O)(=O)Nc2cc(-c3csc(NC(C)=O)n3)ccc2N2CCN(C)CC2)cc1	4.92 µM	9.64
Cc1cccc(C)c1NC(=O)C(=O)CC(=O)c1cccc([N+](=O)[O-])c1		> 100
Cc1ccc(S(=O)(=O)NC(=O)NC2=NC(C)(C)N(c3ccc(Cl)c(Cl)c3)C(N)=N2)cc1		> 100
S=C1SC2=Nc3ccccc3CN2C2=NCCN12	80.8 µM	> 100
O=C(O)CN(c1ccccc1)S(=O)(=O)c1ccc([N+](=O)[O-])cc1		> 100
Clc1cc(Cl)cc(Nc2ccc3cc(OCCCN4CCOCC4)ccc3n2)c1	2.36 µM	6.4
C/C(CCn1[nH]c(=O)ccc1=O)=N\OCCCc1ccccc1		> 100
Nc1nc(N)c2cc(CNc3ccc(C(=O)NC(CC(=O)O)C(=O)O)c(Cl)c3)ccc2n1 (stereo not given)	177 µM	> 500
CCN(CC)c1cc2oc3cc(N)cc(=N)c-3nc2cc1C	1.78 µM	5.63
CC(=O)OC1C2CCC1C1C2C2(Cl)C(Cl)=C(Cl)C1(Cl)C2(Cl)Cl (stereo not given)		24
CC(C(=O)n1c2ccccc2c2ccccc21)N(c1ccccc1)c1ccccc1 (stereo not given)		31.7
CCOC(=O)Cn1c(=O)n(C)c(=O)c2c1ncn2Cc1ccccc1		> 100
CC(C)(C)OC(=O)N1N=NC2C1C1CC(OCc3ccccc3)(OCc3ccccc3)C2O1 (stereo not given)		> 100
O=C1CSC(c2ccc(-c3nc4ccccc4s3)cc2)=N1	16 µM	55
Cc1ncc([N+](=O)[O-])n1CCNS(=O)(=O)CCCn1ncnc1[N+](=O)[O-]		> 100
C=CCN1CC2CON(C(=O)C(OC)(c3ccccc3)C(F)(F)F)C2C1C(C)C (stereo not given)	36.3 µg/mL	
O=S1(=O)OCCOS(=O)(=O)C1Cl		> 100
CCOc1ccccc1NC(=O)C(=O)Cc1nc2ccccc2s1		> 100
Cc1cccc(N=C2NC(=O)C(CC(=O)Nc3cccc(C)c3C)S2)c1 (stereo not given)		> 100
CN(C)CCSc1nccc(-c2cc3ccccc3s2)n1		> 100
O=C(O)CSc1n[nH]c(Cc2ccccc2)n1		> 100
O=C1C(Cl)=C(Nc2ccccc2O)C(=O)N1Cc1ccccc1	18 µM	31.9

test system: SN12C renal; assay: DTP human tumour cell line panel, 48 h

SMILES	GI50 [µM]	TGI [µM]
CN1CCN(c2ccc(Nc3ncc4cc(C#N)c(=O)n(C5CCCC5)c4n3)cc2)CC1	0.917	15.5
C=C1CC[C@@H](C(C)C)C[C@@H]2[C@H]([C@H](O)C[C@]2(C)O)[C@@]2(C)CC[C@@H]1O2	11.2	23.3
Nc1ccc2[nH]cc(CCC(=O)O)c2c1		> 100
OCC(O)CNc1ccnc2cc(Cl)ccc12 (stereo not given)		> 100
Cc1cccc(C(C)C)c1NC(=O)C(=O)C(C(=O)c1ccccc1F)C1OC(=O)c2ccccc21 (stereo not given)		46.8
O=C(N/N=C/c1c(Cl)cccc1Cl)c1ccc(C(F)(F)F)nc1Nc1cccc(C(F)(F)F)c1	0.912	20.8
O=C(NO)c1ccc(CN(c2cnccn2)c2cnccn2)cc1	18.3	42.5
Cc1ccc(Nc2nnc(-c3ccc4c(c3)OCO4)o2)c(C)c1		> 100
CCCCCc1ccc(S(=O)(=O)Nc2cc(-c3csc(NC(C)=O)n3)ccc2N2CCN(C)CC2)cc1	4.7	9.25
Cc1cccc(C)c1NC(=O)C(=O)CC(=O)c1cccc([N+](=O)[O-])c1		> 100
Cc1ccc(S(=O)(=O)NC(=O)NC2=NC(C)(C)N(c3ccc(Cl)c(Cl)c3)C(N)=N2)cc1		> 100
S=C1SC2=Nc3ccccc3CN2C2=NCCN12	> 100	> 100
O=C(O)CN(c1ccccc1)S(=O)(=O)c1ccc([N+](=O)[O-])cc1		> 100
Clc1cc(Cl)cc(Nc2ccc3cc(OCCCN4CCOCC4)ccc3n2)c1	3.46	> 100
COc1ccc2c3c(Nc4ccc(/C(C)=N/O)cc4)[nH]c4ccccc4c-3c(N=O)c2c1	7.06	23
